The record followed here is patent US6355633B1, “Aryl sulfonic acids and derivatives as FSH antagonists” (American Home Products Corporation, priority 1999, dated 2002).

The experiment deals with T1, FSH receptor (Homo sapiens, UniProt P23945).
T1 sequence (P23945 18-695): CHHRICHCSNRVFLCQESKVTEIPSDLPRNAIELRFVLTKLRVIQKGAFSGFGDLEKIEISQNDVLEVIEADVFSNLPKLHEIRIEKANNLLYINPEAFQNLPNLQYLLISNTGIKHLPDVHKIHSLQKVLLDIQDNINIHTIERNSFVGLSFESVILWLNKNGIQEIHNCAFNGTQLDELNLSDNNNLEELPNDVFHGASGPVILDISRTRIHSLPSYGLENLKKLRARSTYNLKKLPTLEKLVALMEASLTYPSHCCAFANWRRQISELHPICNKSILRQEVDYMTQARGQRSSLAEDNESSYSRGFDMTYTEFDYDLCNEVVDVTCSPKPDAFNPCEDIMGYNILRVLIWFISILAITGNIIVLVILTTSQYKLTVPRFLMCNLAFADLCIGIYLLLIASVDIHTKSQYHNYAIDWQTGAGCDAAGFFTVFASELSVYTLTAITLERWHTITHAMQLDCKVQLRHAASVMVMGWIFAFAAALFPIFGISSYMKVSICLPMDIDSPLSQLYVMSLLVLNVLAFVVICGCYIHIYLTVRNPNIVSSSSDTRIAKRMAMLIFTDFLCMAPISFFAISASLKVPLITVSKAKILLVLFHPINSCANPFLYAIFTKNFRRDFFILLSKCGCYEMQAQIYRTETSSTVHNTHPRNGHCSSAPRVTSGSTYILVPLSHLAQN
Kind of experiment: In Vitro Bio-test Procedure of Agonists and Antagonists to the FSH Receptor (cAMP accumulation in CHO-3D2 cells). In kind it is cell-based. More on the design: expressed in transfected cells; host or cells: CHO-3D2 cells. Summed up: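 CHO-3D2 cells (30,000/well, plated one day earlier) preincubated 30-45 min, then challenged with compounds in Optimem/0.1% BSA for 30 minutes at 37 deg C; agonist mode at 5 concentrations, antagonist mode against ED20 FSH. cAMP accumulation in medium measured by radioimmunoassay (fmol/mL); ANOVA with Dunnett's or Duncan's test.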

Setting [1] is: antagonist mode, inhibition of hFSH-induced cAMP accumulation (ED20 of FSH, […]), CHO-3D2 cells.

Like-named read-outs stand apart in the source and are kept apart here.

“2,2′-[(E)-1,2-Ethenediyl]bis[5-[[4-(methylthio)-3-(4-morpholinylsulfonyl)benzoyl]amino]benzenesulfonic Acid] [Example 30b]”: the IC50 under setting [1] turned out to be 1300 nM.

On to `COCCOCCOc1ccc(C(=O)Nc2ccc(/C=C/c3ccc(NC(=O)c4ccc(OCCOCCOC)c(S(=O)(=O)N5CCOCC5)c4)cc3S(=O)(=O)O)c(S(=O)(=O)O)c2)cc1S(=O)(=O)N1CCOCC1` [Example 30a, 2,2′-[(E)-1,2-Ethenediyl]bis[5-[[4-[2-(2-methoxyethoxy)ethoxy]-3-(4-morpholinylsulfonyl)benzoyl]amino]benzenesulfonic Acid]], for which the half-inhibitory concentration (IC50) came to 1600 nM.

Under setting [1], `CS(=O)(=O)c1ccc(C(=O)Nc2ccc(/C=C/c3ccc(NC(=O)c4ccc(S(C)(=O)=O)c([N+](=O)[O-])c4)cc3S(=O)(=O)O)c(S(=O)(=O)O)c2)cc1[N+](=O)[O-]` [Example 30c, 2.2′-[(E)-1,2-Ethenediyl]bis[5-[[(4-methylsulfonyl)-3-(nitro)-benzoyl]amino]benzenesulfonic Acid]] yielded an IC50 of 3600 nM.

With `CS(=O)(=O)c1ccc(C(=O)Nc2ccc(/C=C/c3ccc(NC(=O)c4ccc(S(C)(=O)=O)c(S(=O)(=O)N5CCOCC5)c4)cc3S(=O)(=O)O)c(S(=O)(=O)O)c2)cc1S(=O)(=O)N1CCOCC1` [Example 30d, 2,2′-[(E)-1,2-Ethenediyl]bis[5-[[4-(methylsulfonyl)-3-(4-morpholinylsulfonyl)benzoyl]amino]benzenesulfonic Acid]], the IC50 was found to be 1600 nM.

`CSc1ccc(C(=O)Nc2ccc(/C=C/c3ccc(NC(=O)c4ccc(S(C)(=O)=O)c([N+](=O)[O-])c4)cc3S(=O)(=O)O)c(S(=O)(=O)O)c2)cc1S(=O)(=O)N1CCOCC1` [Example 30e]: the IC50 amounted to 900 nM.

Turning to `COCCNS(=O)(=O)c1cc(C(=O)Nc2ccc(/C=C/c3ccc(NC(=O)c4ccc(S(C)(=O)=O)c([N+](=O)[O-])c4)cc3S(=O)(=O)O)c(S(=O)(=O)O)c2)ccc1OC` [Example 30f], the concentration for half-maximal inhibition (IC50) stood at 3100 nM.

As for `COc1ccc(C(=O)Nc2ccc(/C=C/c3ccc(NC(=O)c4ccc(S(C)(=O)=O)cc4)cc3S(=O)(=O)O)c(S(=O)(=O)O)c2)cc1S(=O)(=O)N1CCOCC1` [Example 30g], the half-inhibitory concentration (IC50) under setting [1] came out at 2500 nM.

Consider `COc1ccc(C(=O)Nc2ccc(/C=C/c3ccc(NC(=O)c4ccc(OC)c(S(=O)(=O)N5CCS(=O)(=O)CC5)c4)cc3S(=O)(=O)O)c(S(=O)(=O)O)c2)cc1S(=O)(=O)N1CCS(=O)(=O)CC1` [Example 30k, 2,2′-[(E)-1,2-Ethenediyl]bis[5-[[3-[(1,1-dioxido-4-thiomorpholinyl)sulfonyl]-4-methoxybenzoyl]amino]benzenesulfonic Acid]], for which the half-maximal inhibitory concentration (IC50) was determined as 1500 nM.

Compound `COCCNS(=O)(=O)c1cc(C(=O)Nc2ccc(/C=C/c3ccc(NC(=O)c4ccc(OC)c(S(=O)(=O)NCCOC)c4)cc3S(=O)(=O)O)c(S(=O)(=O)O)c2)ccc1OC` [Example 30m, 2,2′-[(E)-1,2-Ethenediyl]bis[5-[[4-methoxy-3-[[(2-methoxyethyl)amino]sulfonyl]benzoyl]amino]benzenesulfonic Acid]] returned a 50% inhibitory concentration (IC50) of 5800 nM.

Take `CS(=O)(=O)c1ccc(C(=O)Nc2ccc(/C=C/c3ccc(NC(=O)c4ccc(S(C)(=O)=O)cc4)cc3S(=O)(=O)O)c(S(=O)(=O)O)c2)cc1` [Example 30q, 2,2′-[(E)-1,2-Ethenediyl]bis[5-[[4-(methylsulfonyl)benzoyl]amino]benzenesulfonic Acid]]: the IC50 stood at 12000 nM.

`O=C(Nc1ccc(/C=C/c2ccc(NC(=O)c3ccc(OC4CCOCC4)c(S(=O)(=O)N4CCOCC4)c3)cc2S(=O)(=O)O)c(S(=O)(=O)O)c1)c1ccc(OC2CCOCC2)c(S(=O)(=O)N2CCOCC2)c1` [Example 30r, 2,2′-[(E)-1,2-Ethenediyl]bis[5-[[3-(4-morpholinylsulfonyl)-4-[(tetrahydro-2H-pyran-4-yl)oxy]benzoyl]amino]benzenesulfonic Acid]] came in with a half-maximal inhibitory concentration (IC50) of 2000 nM.

The compound `COc1ccc(C(=O)Nc2ccc(/C=C/c3ccc(NC(=O)c4ccc(OC)c(S(=O)(=O)N5CCOCC5)c4)cc3S(=O)(=O)O)c(S(=O)(=O)O)c2)cc1S(=O)(=O)N1CCOCC1` [Example 30s, 2,2′-[(E)-1,2-Ethenediyl]bis[5-[[4-methoxy-3-(4-morpholinylsulfonyl)benzoyl]amino]benzenesulfonic Acid]] had a 50% inhibitory concentration (IC50) of 4400 nM.

For the compound `COCCOc1ccc(C(=O)Nc2ccc(/C=C/c3ccc(NC(=O)c4ccc(OCCOC)c(S(=O)(=O)N5CCOCC5)c4)cc3S(=O)(=O)O)c(S(=O)(=O)O)c2)cc1S(=O)(=O)N1CCOCC1` [Example 30t, 2,2′-[(E)-1,2-Ethenediyl]bis[5-[[4-(2-methoxyethoxy)-3-(4-morpholinylsulfony)benzoyl]amino]benzenesulfonic Acid]], the IC50 amounted to 1400 nM.

The compound `CCS(=O)(=O)c1ccc(C(=O)Nc2ccc(/C=C/c3ccc(NC(=O)c4ccc(S(=O)(=O)CC)cc4)cc3S(=O)(=O)O)c(S(=O)(=O)O)c2)cc1` [Example 32f, 2,2′-[(E)-1,2-Ethenediyl]bis[5-[[4-(ethylsulfonyl)benzoyl]amino]benzenesulfonic Acid]] showed an IC50 of 4200 nM.

On to `COc1ccc(C(=O)Nc2ccc(/C=C/c3ccc(NC(=O)c4ccc(OC)c(S(=O)(=O)N5CCSCC5)c4)cc3S(=O)(=O)O)c(S(=O)(=O)O)c2)cc1S(=O)(=O)N1CCSCC1` [Example 33d, 2,2′-[(E)-1,2-Ethenediyl]bis[5-[[4-methoxy-3-(4-thiomorpholinylsulfonyl)benzoyl]amino]benzenesulfonic Acid]], for which the IC50 is 2600 nM.

As for `COc1ccc(C(=O)Nc2ccc(/C=C/c3ccc(NC(=O)c4ccc(OC)c(S(=O)(=O)N5CCCC5)c4)cc3S(=O)(=O)O)c(S(=O)(=O)O)c2)cc1S(=O)(=O)N1CCCC1` [Example 33e, 2,2′-[(E)-1,2-Ethenediyl]bis[5-[[4-methoxy-3-(1-pyrrolidinylsulfonyl)benzoyl]amino]benzenesulfonic Acid]], the IC50 was 1500 nM.

For the compound `COc1ccc(C(=O)Nc2ccc(/C=C/c3ccc(NC(=O)c4ccc(OC)c(S(=O)(=O)N5CCN(C(C)=O)CC5)c4)cc3S(=O)(=O)O)c(S(=O)(=O)O)c2)cc1S(=O)(=O)N1CCN(C(C)=O)CC1` [Example 34a, 2,2′-[(E)-1,2-Ethenediyl]bis[5-[[3-[(4-acetyl-1-piperazinyl)sulfonyl]-4-methoxybenzoyl]amino]benzenesulfonic Acid]], the IC50 worked out at 3300 nM.

`COc1ccc(C(=O)Nc2ccc(/C=C/c3ccc(NC(=O)c4ccc(OC)c(S(=O)(=O)N5CCN(C=O)CC5)c4)cc3S(=O)(=O)O)c(S(=O)(=O)O)c2)cc1S(=O)(=O)N1CCN(C=O)CC1` [Example 34b, 2,2′-[(E)-1,2-Ethenediyl]bis[5-[[3-[(4-formyl-1-piperazinyl)sulfonyl]-4-methoxybenzoyl]amino]benzenesulfonic Acid]] had an IC50 of 1700 nM.

The compound `COc1ccc(C(=O)Nc2ccc(CCc3ccc(NC(=O)c4ccc(S(C)(=O)=O)cc4)cc3S(=O)(=O)O)c(S(=O)(=O)O)c2)cc1S(=O)(=O)N1CCOCC1` [Example 43a, 5-[[4-Methoxy-3-(4-morpholinylsulfonyl)benzoyl]amino]-2-[2-[4-[[4-(methylsulfonyl)benzoyl]amino]-2-sulfophenyl]ethyl]benzenesulfonic Acid] gave an IC50 of 8700 nM.
